Consider 43 compounds from US20060004002A1 (priority 2004, published 2006).

The target in one assay is T1, Recombinant Csk (Homo sapiens, UniProt P41240).
T1 construct: GST ('glutathione-5-transferase' [sic]); made in house; host or cells: E. coli (pGEX expression vector)
In words: Csk tyrosine kinase activity assay with poly E4Y and 32P-ATP. Format: biochemical. The settings on record: NI = no inhibition. The procedure:
(§1) Recombinant human Src was expressed using the baculovirus-insect cell system and purified as published (Budde et al., 1993 and 2000). Recombinant Csk and the FGF receptor (FGFr) were expressed as […] fusion proteins using the pGEX expression vector and E. coli, and purified as described (Sun & Budde, 1995).
(§2) The tyrosine kinase activity of Src, Csk and FGFr was determined using poly E4Y and ^32P-ATP. Briefly, enzymes were assayed in a reaction mixture […] consisting of 0.15 M EPPS-NaOH (pH 8.0) with 6 mM MgCl2, 0.2 mM γ^32P-ATP (0.2-0.4 mCi/μmol), 10% glycerol, 0.1% Triton X-100, and poly E4Y. Poly E4Y is a synthetic peptide whose phosphorylation is measured in this assay by the addition of the radioactively labeled phosphate from the ATP (Budde et al., 1995). […] When ATP was varied (0, 50, 100 and 250 μM), poly E4Y was kept constant at 150 μg/ml.

The target of a further assay is T2, Recombinant human Src (Homo sapiens, UniProt P12931).
T2 construct: made in house; host or cells: baculovirus-insect cell system
T2 sequence (P12931 whole entry): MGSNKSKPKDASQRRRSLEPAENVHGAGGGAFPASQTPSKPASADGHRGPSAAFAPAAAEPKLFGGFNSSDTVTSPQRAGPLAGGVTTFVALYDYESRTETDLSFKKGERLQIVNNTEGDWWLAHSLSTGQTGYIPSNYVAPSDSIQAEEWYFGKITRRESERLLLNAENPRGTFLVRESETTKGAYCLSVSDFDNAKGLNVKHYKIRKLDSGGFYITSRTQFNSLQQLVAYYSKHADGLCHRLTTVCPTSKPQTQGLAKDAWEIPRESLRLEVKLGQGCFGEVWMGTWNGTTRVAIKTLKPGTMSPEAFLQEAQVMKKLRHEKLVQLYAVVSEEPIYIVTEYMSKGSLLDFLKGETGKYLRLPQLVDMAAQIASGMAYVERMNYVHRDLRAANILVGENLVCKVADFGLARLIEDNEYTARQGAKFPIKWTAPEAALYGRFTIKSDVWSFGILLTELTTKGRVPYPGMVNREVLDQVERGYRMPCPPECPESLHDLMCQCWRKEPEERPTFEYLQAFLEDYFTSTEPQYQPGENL
Briefly: Src tyrosine kinase activity assay with poly E4Y and 32P-ATP. It is filed as biochemical. The method, then:
as §1, §2

Where [1] appears, read: poly E4Y, 32P-ATP, NI = no inhibition, read-out: IC50 Value Src.
[2] abbreviates: especially good inhibitors of Src, screening assay 50 μg/ml poly E4Y, 0.2 mM ATP, read-out: IC50 (inhibitors of Src).

pIC50: −log10 of the molar value. Like-named read-outs stand apart in the source and are kept apart here.

T1 sequence (P41240 whole entry, species assumed): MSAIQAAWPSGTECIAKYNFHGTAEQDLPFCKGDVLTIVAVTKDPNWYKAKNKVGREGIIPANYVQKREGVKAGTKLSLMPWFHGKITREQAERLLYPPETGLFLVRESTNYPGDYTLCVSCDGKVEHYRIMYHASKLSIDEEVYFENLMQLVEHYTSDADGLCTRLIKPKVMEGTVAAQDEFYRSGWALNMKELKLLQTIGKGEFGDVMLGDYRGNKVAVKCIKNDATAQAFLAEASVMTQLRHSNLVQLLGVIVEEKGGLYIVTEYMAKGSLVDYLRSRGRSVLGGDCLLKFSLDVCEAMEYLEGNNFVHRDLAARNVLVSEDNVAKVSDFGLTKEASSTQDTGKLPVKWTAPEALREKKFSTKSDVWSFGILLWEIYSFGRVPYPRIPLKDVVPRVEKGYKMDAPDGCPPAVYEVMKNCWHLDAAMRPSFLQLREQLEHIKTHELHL

Consider `CCOc1ccccc1-c1sc2c(NN=Cc3ccc(OC)c(O)c3)ncnc2c1CO` [Compound 33, 3-Hydroxy-4-methoxybenzaldehyde (7-hydroxymethyl-6-(2-ethoxyphenyl)thieno[3,2-d]pyrimidin-4-yl)hydrazone], for which the figures for the pIC50 on Recombinant Csk and at Recombinant human Src (setting [1]) were 5.00 and 7.96, respectively.

For the compound `C=Cc1c(-c2ccccc2OCC)sc2c(NN=Cc3ccc(OC)c(O)c3)ncnc12` [Compound 34, 3-Hydroxy-4-methoxybenzaldehyde (6-(2-ethoxyphenyl)-7-vinylthieno[3,2-d]pyrimidin-4-yl)hydrazone], the negative logarithm of the IC50 (pIC50) (commonly −log10 of the IC50, conventionally taken in molar units) at Recombinant Csk is 5.87; at Recombinant human Src (setting [2]), at least 5.70; at Recombinant human Src (setting [1]), 7.41.

Consider `CCOc1ccccc1-c1sc2c(NN=Cc3ccc(OC)c(O)c3)ncnc2c1O` [Compound 37, 3-Hydroxy-4-methoxybenzaldehyde (6-(2-ethoxyphenyl)-7-hydroxythieno[3,2-d]pyrimidin-4-yl)hydrazone], for which the negative-log IC50 (pIC50) was 5.89 at Recombinant Csk, at least 5.70 at Recombinant human Src (setting [2]) and 8.59 at Recombinant human Src (setting [1]).

With `COc1ccc(C=NNc2ncnc3c(C)c(-c4ccc([N+](=O)[O-])cc4)sc23)cc1O` [Compound 39, 3-Hydroxy-4-methoxybenzaldehyde (6-(4-nitrophenyl)-7-methylthieno[3,2-d]pyrimidin-4-yl)hydrazone], the pIC50 is 4.64 on Recombinant Csk and 6.80 on Recombinant human Src (setting [1]).

Turning to `COc1ccc(C=NNc2ncnc3c(C)c(-c4ccc(N(C)C)cc4)sc23)cc1O` [Compound 42, 3-Hydroxy-4-methoxybenzaldehyde (6-(4-N,N-dimethylaminophenyl)-7-methylthieno[3,2-d]pyrimidin-4-yl)hydrazone], the negative-log IC50 (pIC50) was 6.34 at Recombinant Csk, at least 5.70 at Recombinant human Src (setting [2]) and 7.14 at Recombinant human Src (setting [1]).

`COc1ccc(C=NNc2ncnc3c(C)c(-c4ccc(NC(C)=O)cc4)sc23)cc1O` [Compound 43, 3-Hydroxy-4-methoxybenzaldehyde (6-(4-N-acetylaminophenyl)-7-methythieno[3,2-d]pyrimidin-4-yl)hydrazone]: the pIC50 was 3.95 on Recombinant Csk and 7.92 on Recombinant human Src (setting [1]).

`COc1ccc(C=NNc2ncnc3c(C)c(-c4cccc(C(N)=NO)c4)sc23)cc1O` [Compound 45]: the figures for the negative-log IC50 (pIC50) at Recombinant Csk and at Recombinant human Src (setting [1]) were 4.57 and 7.72, respectively.

On to `Cc1c(-c2cccc(C(N)=NO)c2)sc2c(NN=Cc3cccnc3)ncnc12` [Compound 49, 3-Pyridinecarboxaldehyde (6-(N-hydroxy-benzamidin-3-yl)-7-methylthieno[3,2-d]pyrimidin-4-yl)hydrazone], for which the negative-log IC50 (pIC50) at Recombinant Csk was 3.91; at Recombinant human Src (setting [1]) it was 8.39.

For the compound `Cc1c(-c2ccc(C(N)=NO)cc2)sc2c(NN=Cc3cccnc3)ncnc12` [Compound 50, 3-Pyridinecarboxaldehyde (6-(N-hydroxy-benzamidin-4-yl)-7-methylthieno[3,2-d]pyrimidin-4-yl)hydrazone], the negative logarithm of the IC50 (pIC50) was 4.38 at Recombinant Csk and 7.60 at Recombinant human Src (setting [1]).

As for `COc1ccc(C=NNc2ncnc3c(C)c(-c4ccc(C(N)=NO)cc4)sc23)cc1O` [Compound 51, 3-Hydroxy-4-methoxybenzaldehyde (6-(N-hydroxy-benzamidin-4-yl)-7-methylthieno[3,2-d]pyrimidin-4-yl)hydrazone], the pIC50 on Recombinant Csk is 4.33; on Recombinant human Src (setting [1]), 7.96.

`CCOc1ccccc1-c1sc2c(NN=Cc3ccc(OC)c(OCCN4CCOCC4)c3)ncnc2c1C` [Compound 52, 4-Methoxy-3-(2-(morpholin-4-yl)-ethoxy)-benzaldehyde (6-(2-ethoxyphenyl)-7-methylthieno[3,2-d]pyrimidin-4-yl)hydrazone]: the figures for the negative-log IC50 (pIC50) on Recombinant Csk and on Recombinant human Src (setting [1]) were 4.34 and 8.96, respectively.

With `CCOc1ccccc1-c1sc2c(NN=Cc3ccc(OCCN4CCOCC4)c(OC)c3)ncnc2c1C` [Compound 54, 3-Methoxy-4-(2-(morpholin-4-yl)-ethoxy)-benzaldehyde (6-(2-ethoxyphenyl)-7-methylthieno[3,2-d]pyrimidin-4-yl)hydrazone], the figures for the negative logarithm of the IC50 (pIC50) on Recombinant Csk and at Recombinant human Src (setting [1]) were 3.96 and 8.85, respectively.

Consider `COc1ccc(C=NNc2ncnc3c(CO)c(-c4ccc(N)cc4)sc23)cc1O` [Compound 58, 3-Hydroxy-4-methoxybenzaldehyde (6-(4-aminophenyl)-7-hydroxymethylthieno[3,2-d]pyrimidin-4-yl)hydrazone], for which the negative logarithm of the IC50 (pIC50) on Recombinant Csk was 4.92; at Recombinant human Src (setting [1]) it was 7.37.

Take `CCOc1ccccc1-c1sc2c(NN=Cc3ccc(N(C)C)cc3)ncnc2c1O` [Compound 133, 4-N,N-Dimethylaminobenzaldehyde (6-(2-ethoxyphenyl)-7-hydroxythieno[3,2-d]pyrimidin-4-yl)hydrazone]: the negative logarithm of the IC50 (pIC50) on Recombinant human Src (setting [1]) was 8.21.

For `CCOc1ccccc1-c1sc2c(NN=Cc3cccc(F)c3)ncnc2c1C#N` [Compound 139, 3-Fluorobenzaldehyde (7-cyano-6-(2-ethoxyphenyl)thieno[3,2-d]pyrimidin-4-yl)hydrazone], the pIC50 on Recombinant human Src (setting [1]) is 8.33.

Regarding `CCOc1cc(F)ccc1-c1sc2c(NN=Cc3cc(OC)c(OCCN(CC)CC)c(OC)c3)ncnc2c1O` [Compound 159, 4-(2-Diethylamino-ethoxy)-3,5-dimethoxy-benzaldehyde (6-(2-ethoxy-4-fluorophenyl)-7-hydroxythieno[3,2-d]pyrimidin-4-yl)hydrazone], the negative-log IC50 (pIC50) on Recombinant human Src (setting [1]) is 9.25.

Take `CCOc1cc(F)ccc1-c1sc2c(NN=Cc3cc(OC)c(OCCN(CC)CC)c(OC)c3)ncnc2c1C` [Compound 160, 4-(2-Diethylamino-ethoxy)-3,5-dimethoxy-benzaldehyde (6-(2-ethoxy-4-fluorophenyl)-7-methylthieno[3,2-d]pyrimidin-4-yl)hydrazone]: the negative logarithm of the IC50 (pIC50) on Recombinant human Src (setting [1]) was 9.52.

On to `CCOc1ccccc1-c1sc2c(NN=Cc3ccc(OC)c(O)c3)ncnc2c1CC` [compound 35], for which the pIC50 on Recombinant human Src (setting [1]) was 7.85.

As for `CCOc1ccccc1-c1sc2c(NN=Cc3ccc(OC)c(O)c3)ncnc2c1C#N` [compound 47], the pIC50 at Recombinant human Src (setting [1]) is 8.82.

As for `CCOc1ccccc1-c1sc2c(NN=Cc3cccnc3)ncnc2c1C#N` [compound 67], the pIC50 on Recombinant human Src (setting [1]) is 8.92.

Consider `CCOc1ccccc1-c1sc2c(NN=Cc3ccc(O)c(OC)c3)ncnc2c1C#N` [compound 86], for which the negative logarithm of the IC50 (pIC50) at Recombinant human Src (setting [1]) is 8.85.

For `CCOc1ccccc1-c1sc2c(NN=Cc3cc(Br)c(O)c(OC)c3)ncnc2c1C#N` [compound 87], the pIC50 on Recombinant human Src (setting [1]) was 9.51.

`CCOc1ccccc1-c1sc2c(NN=Cc3ccc(O)c(Cl)c3)ncnc2c1C#N` [compound 90]: the pIC50 on Recombinant human Src (setting [1]) is 8.68.

Take `CCOc1ccccc1-c1sc2c(NN=Cc3ccsc3)ncnc2c1C#N` [compound 91]: on Recombinant human Src (setting [1]), the negative logarithm of the IC50 (pIC50) is 9.24.

As to `CCOc1ccccc1-c1sc2c(NN=Cc3cc(OC)c(O)c(OC)c3)ncnc2c1C#N` [compound 94], the pIC50 on Recombinant human Src (setting [1]) is 9.47.

For `CCOc1ccccc1-c1sc2c(NN=Cc3ncc[nH]3)ncnc2c1C#N` [compound 95], at Recombinant human Src (setting [1]), the negative logarithm of the IC50 (pIC50) was 7.60.

Take `CCOc1ccccc1-c1sc2c(NN=Cc3cc(O)c(OC)c(OC)c3)ncnc2c1C#N` [compound 98]: the pIC50 on Recombinant human Src (setting [1]) is 9.00.

`CCOc1ccccc1-c1sc2c(NN=Cc3ccc(O)cc3)ncnc2c1C#N` [compound 102]: at Recombinant human Src (setting [1]), the pIC50 is 8.82.

With `CCOc1cc(F)ccc1-c1sc2c(NN=Cc3cccs3)ncnc2c1C#N` [compound 108], on Recombinant human Src (setting [1]), the negative-log IC50 (pIC50) was 8.07.

Take `CCOc1ccccc1-c1sc2c(NN=Cc3ccncc3)ncnc2c1C#N` [compound 110]: the negative-log IC50 (pIC50) on Recombinant human Src (setting [1]) was 8.72.

As to `CCOc1ccccc1-c1sc2c(NN=Cc3c[nH]c(=O)[nH]c3=O)ncnc2c1C#N` [compound 111], at Recombinant human Src (setting [1]), the negative-log IC50 (pIC50) was 7.92.

On to `CCOc1ccccc1-c1sc2c(NN=Cc3cccc(C(=O)O)c3)ncnc2c1C#N` [compound 114], for which, at Recombinant human Src (setting [1]), the negative-log IC50 (pIC50) is 8.49.

In the case of `CCOc1ccccc1-c1sc2c(NN=Cc3[nH]cnc3C)ncnc2c1C#N` [compound 115], the negative-log IC50 (pIC50) on Recombinant human Src (setting [1]) is 8.59.

`CCOc1ccccc1-c1sc2c(NN=Cc3ccc(C(=O)OC)cc3)ncnc2c1C#N` [compound 118]: the pIC50 at Recombinant human Src (setting [1]) was 7.66.

On to `CCOc1ccccc1-c1sc2c(NN=Cc3ccco3)ncnc2c1C#N` [compound 119], for which the pIC50 on Recombinant human Src (setting [1]) is 8.33.

`CCOc1ccccc1-c1sc2c(NN=Cc3sccc3C)ncnc2c1C#N` [compound 122]: on Recombinant human Src (setting [1]), the pIC50 is 8.28.

On to `CCOc1ccccc1-c1sc2c(NN=Cc3ccc(C)s3)ncnc2c1C#N` [compound 126], for which the pIC50 at Recombinant human Src (setting [1]) is 8.31.

Regarding `CCOc1ccccc1-c1sc2c(NN=Cc3ccoc3)ncnc2c1C#N` [compound 127], on Recombinant human Src (setting [1]), the negative logarithm of the IC50 (pIC50) is 8.52.

As for `CCOc1ccccc1-c1sc2c(NN=Cc3ccc(NC(C)=O)cc3)ncnc2c1C#N` [compound 130], the pIC50 at Recombinant human Src (setting [1]) is 8.74.

Turning to `CCOc1ccccc1-c1sc2c(NN=Cc3ccc(N(C)C)cc3)ncnc2c1C#N` [compound 131], at Recombinant human Src (setting [1]), the pIC50 was 6.89.

For `CCOc1ccccc1-c1sc2c(NN=Cc3ccc(C)o3)ncnc2c1C#N` [compound 134], the negative-log IC50 (pIC50) on Recombinant human Src (setting [1]) was 8.59.

On to `CCOc1ccccc1-c1sc2c(NN=Cc3ccc(F)cc3)ncnc2c1C#N` [compound 135], for which the pIC50 on Recombinant human Src (setting [1]) is 8.40.

In the case of `CCOc1ccccc1-c1sc2c(NN=Cc3nccn3C)ncnc2c1C#N` [compound 138], the pIC50 on Recombinant human Src (setting [1]) is 7.74.
